Key:
Bcl-2 = Bcl-2 (Homo sapiens (Human), UniProt P10415); test: Time Resolved-Fluorescence Resonance Energy Transfer (TR-FRET) Bcl-2 binding assay; conditions: GST-Bcl-2 1 nM, F-Bak peptide probe 100 nM, Tb-anti-GST 1 nM; < means below limit of detection; read-out: TR-FRET Bcl-2 Binding Ki
Method: The samples are then mixed on a shaker for 1 minute and incubated for an additional 3 hours at room temperature. For each assay, the probe/antibody and protein/probe/antibody were included on each assay plate as negative and positive controls, respectively.
The samples were then mixed on a shaker for 1 minute and incubated for an additional 3 hours at room temperature. For each assay, the probe/antibody and protein/probe/antibody were included on each assay plate as negative and positive controls, respectively.

RS4;11 cells = test: RS4;11 cell viability assay (CellTiter Glo); type: cell-based, human; conditions: Homo sapiens, RS4-11, 48 h, 50,000 cells per well, 10% human serum, 48 hours; read-out: RS4; 11 EC50 Values;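 also: acute lymphoblastic leukemia line RS4,11, EC50 derived from percentage of viable cells after treatment relative to untreated controls, cell killing taken as a measure of Bcl-2 inhibition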
Method: The acute lymphoblastic leukemia (ALL) cell line RS4;11 was used as the primary human cell line to assess the cellular activity of Bcl-2 selective agents in vitro and their efficacy in vivo.
Cell cytotoxicity EC50 values were assessed using CellTiter Glo (Promega) according to the manufacturer's recommendations. The EC50 values were determined as a percentage of viable cells following treatment compared to the untreated control cells.

Bcl-2, sequence (P10415 whole entry): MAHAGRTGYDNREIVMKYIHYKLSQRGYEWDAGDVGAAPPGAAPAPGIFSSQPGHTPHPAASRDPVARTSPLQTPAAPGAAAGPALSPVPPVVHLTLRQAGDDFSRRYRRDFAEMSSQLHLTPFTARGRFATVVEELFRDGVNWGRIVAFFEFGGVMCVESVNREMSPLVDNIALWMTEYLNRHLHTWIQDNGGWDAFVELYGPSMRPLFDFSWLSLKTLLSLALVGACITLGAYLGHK

SMILES	Ki (Bcl-2)	EC50 (RS4;11 cells)
CC1(C)CCC(CN2CCN(c3ccc(C(=O)NS(=O)(=O)c4ccc(OC[C@H]5CC[C@H](O)CC5)c([N+](=O)[O-])c4)c(Oc4cnc5[nH]ccc5c4)c3)CC2)=C(c2ccc(Cl)cc2)C1 [Example 196, Trans-4-(4-{[2-(4-chlorophenyl)-4,4-dimethylcyclohex-1-en-1-yl]methyl}piperazin-1-yl)-N-({4-[(4-hydroxycyclohexyl)methoxy]-3-nitrophenyl}sulfonyl)-2-(1H-pyrrolo[2,3-b]pyridin-5-yloxy)benzamide]	< 0.01 nM	
CC1(C)CCC(CN2CCN(c3ccc(C(=O)NS(=O)(=O)c4cnc(OCCC5CCCO5)c(Cl)c4)c(Oc4cnc5[nH]ccc5c4)c3)CC2)=C(c2ccc(Cl)cc2)C1 (stereo not drawn) [Example 289, 4-(4-{[2-(4-chlorophenyl)-4,4-dimethylcyclohex-1-en-1-yl]methyl}piperazin-1-yl)-N-({5-chloro-6-[2-(tetrahydrofuran-2-yl)ethoxy]pyridin-3-yl}sulfonyl)-2-(1H-pyrrolo[2,3-b]pyridin-5-yloxy)benzamide]		669 nM
CO[C@H]1CC[C@@H](COc2ncc(S(=O)(=O)NC(=O)c3ccc(N4CCN(CC5=C(c6ccc(Cl)cc6)CC(C)(C)CC5)CC4)cc3Oc3cnc4[nH]ccc4c3)cc2C(F)(F)F)CC1 [Example 301, 4-(4-{[2-(4-chlorophenyl)-4,4-dimethylcyclohex-1-en-1-yl]methyl}piperazin-1-yl)-N-({6-[(cis-4-methoxycyclohexyl)methoxy]-5-(trifluoromethyl)pyridin-3-yl}sulfonyl)-2-(1H-pyrrolo[2,3-b]pyridin-5-yloxy)benzamide]		> 1000 nM
CC1(C)CCC(CN2CCN(c3ccc(C(=O)NS(=O)(=O)c4ccc(OCC5COCCN5C5CCOCC5)c([N+](=O)[O-])c4)c(Oc4cnc5[nH]ccc5c4)c3)CC2)=C(c2ccc(Cl)cc2)C1 (stereo not drawn) [Example 104, 4-(4-{[2-(4-chlorophenyl)-4,4-dimethylcyclohex-1-en-1-yl]methyl}piperazin-1-yl)-N-({3-nitro-4-[(4-tetrahydro-2H-pyran-4-ylmorpholin-3-yl)methoxy]phenyl}sulfonyl)-2-(1H-pyrrolo[2,3-b]pyridin-5-yloxy)benzamide]		71.2 nM
O=C(NS(=O)(=O)c1cnc(OCC2(F)CCN(C3COC3)CC2)c(Cl)c1)c1ccc(N2CCN(CC3=C(c4ccc(Cl)cc4)CC4(CC3)CC4)CC2)cc1Oc1cnc2[nH]ccc2c1 [Example 345, N-[(5-chloro-6-{[4-fluoro-1-(oxetan-3-yl)piperidin-4-yl]methoxy}pyridin-3-yl)sulfonyl]-4-(4-{[5-(4-chlorophenyl)spiro[2.5]oct-5-en-6-yl]methyl}piperazin-1-yl)-2-(1H-pyrrolo[2,3-b]pyridin-5-yloxy)benzamide]		9.25 nM
CC1(C)CCC(CN2CCN(c3ccc(C(=O)NS(=O)(=O)c4ccc(OCC5(F)CCC(N(CCC#N)C6CC6)CC5)c([N+](=O)[O-])c4)c(Oc4cnc5[nH]ccc5c4)c3)CC2)=C(c2ccc(Cl)cc2)C1 (stereo not drawn) [Example 363, 4-(4-{[2-(4-chlorophenyl)-4,4-dimethylcyclohex-1-en-1-yl]methyl}piperazin-1-yl)-N-{[4-({4-[(2-cyanoethyl)(cyclopropyl)amino]-1-fluorocyclohexyl}methoxy)-3-nitrophenyl]sulfonyl}-2-(1H-pyrrolo[2,3-b]pyridin-5-yloxy)benzamide]		26.4 nM
CC1(C)CCC(CN2CCN(c3ccc(C(=O)NS(=O)(=O)c4ccc(N[C@H]5CC[C@@H](N6CCOCC6)CC5)c([N+](=O)[O-])c4)c(Oc4cnc5[nH]ccc5c4)c3)CC2)=C(c2ccc(Cl)cc2)C1 [Example 39, Cis-4-(4-{[2-(4-chlorophenyl)-4,4-dimethylcyclohex-1-en-1-yl]methyl}piperazin-1-yl)-N-({4-[(4-morpholin-4-ylcyclohexyl)amino]-3-nitrophenyl}sulfonyl)-2-(1H-pyrrolo[2,3-b]pyridin-5-yloxy)benzamide]		19.7 nM
O=C(NS(=O)(=O)c1cnc(OCC2CCOCC2)c(Cl)c1)c1ccc(N2CCN(CC3=C(c4ccc(Cl)cc4)CCC4(CCN(C(CF)CF)CC4)C3)CC2)cc1Oc1cnc2[nH]ccc2c1 [Example 267, 4-(4-{[9-(4-chlorophenyl)-3-(1,3-difluoropropan-2-yl)-3-azaspiro[5.5]undec-8-en-8-yl]methyl}piperazin-1-yl)-N-{[5-chloro-6-(tetrahydro-2H-pyran-4-ylmethoxy)pyridin-3-yl]sulfonyl}-2-(1H-pyrrolo[2,3-b]pyridin-5-yloxy)benzamide]		69.4 nM
O=C(NS(=O)(=O)c1ccc(NCC2CCOCC2)c([N+](=O)[O-])c1)c1ccc(N2CCN(CC3=C(c4ccc(Cl)cc4)CC4(CC3)CC4)CC2)cc1Oc1cnc2[nH]ccc2c1 [Example 328, 4-(4-{[5-(4-chlorophenyl)spiro[2.5]oct-5-en-6-yl]methyl}piperazin-1-yl)-N-({3-nitro-4-[(tetrahydro-2H-pyran-4-ylmethyl)amino]phenyl}sulfonyl)-2-(1H-pyrrolo[2,3-b]pyridin-5-yloxy)benzamide]		9.88 nM
CO[C@H]1CC[C@@H](COc2ncc(S(=O)(=O)NC(=O)c3ccc(N4CCN(CC5=C(c6ccc(Cl)cc6)CC(C)(C)CC5)CC4)cc3Oc3cnc4[nH]ccc4c3)cc2Cl)CC1 [Example 211, Cis-N-({5-chloro-6-[(4-methoxycyclohexyl)methoxy]pyridin-3-yl}sulfonyl)-4-(4-{[2-(4-chlorophenyl)-4,4-dimethylcyclohex-1-en-1-yl]methyl}piperazin-1-yl)-2-(1H-pyrrolo[2,3-b]pyridin-5-yloxy)benzamide]		307 nM
CC1(C)CCC(CN2CCN(c3ccc(C(=O)NS(=O)(=O)c4ccc(OCC5(F)CCN(C(=O)OC(C)(C)C)CC5)c([N+](=O)[O-])c4)c(Oc4cnc5[nH]ccc5c4)c3)CC2)=C(c2ccc(Cl)cc2)C1 [Example 126, tert-butyl 4-{[4-({[4-(4-{[2-(4-chlorophenyl)-4,4-dimethylcyclohex-1-en-1-yl]methyl}piperazin-1-yl)-2-(1H-pyrrolo[2,3-b]pyridin-5-yloxy)benzoyl]amino}sulfonyl)-2-nitrophenoxy]methyl}-4-fluoropiperidine-1-carboxylate]		53.6 nM
CC1(C)CCC(CN2CCN(c3ccc(C(=O)NS(=O)(=O)c4ccc(OC[C@@H]5COCCO5)c([N+](=O)[O-])c4)c(Oc4cnc5[nH]ccc5c4)c3)CC2)=C(c2ccc(Cl)cc2)C1 [Example 28, 4-(4-{[2-(4-chlorophenyl)-4,4-dimethylcyclohex-1-en-1-yl]methyl}piperazin-1-yl)-N-({4-[(2S)-1,4-dioxan-2-ylmethoxy]-3-nitrophenyl}sulfonyl)-2-(1H-pyrrolo[2,3-b]pyridin-5-yloxy)benzamide]		41.9 nM
CO[C@H]1CC[C@H](COc2ncc(S(=O)(=O)NC(=O)c3ccc(N4CCN(CC5=C(c6ccc(Cl)cc6)CC(C)(C)CC5)CC4)cc3Oc3cnc4[nH]ccc4c3)cc2Cl)CC1 [Example 210, Trans-N-({5-chloro-6-[(4-methoxycyclohexyl)methoxy]pyridin-3-yl}sulfonyl)-4-(4-{[2-(4-chlorophenyl)-4,4-dimethylcyclohex-1-en-1-yl]methyl}piperazin-1-yl)-2-(1H-pyrrolo[2,3-b]pyridin-5-yloxy)benzamide]		60.2 nM
CC1(C)CCC(CN2CCN(c3ccc(C(=O)NS(=O)(=O)c4cnc(OCC5(F)CCOCC5)c(Cl)c4)c(Oc4cnc5[nH]ccc5c4)c3)CC2)=C(c2ccc(Cl)cc2)C1 [Example 96, N-({5-chloro-6-[(4-fluorotetrahydro-2H-pyran-4-yl)methoxy]pyridin-3-yl}sulfonyl)-4-(4-{[2-(4-chlorophenyl)-4,4-dimethylcyclohex-1-en-1-yl]methyl}piperazin-1-yl)-2-(1H-pyrrolo[2,3-b]pyridin-5-yloxy)benzamide]		43.6 nM
CC1(C)CCC(CN2CCN(c3ccc(C(=O)NS(=O)(=O)c4ccc(OCC5CN(C6CC6)CCO5)c([N+](=O)[O-])c4)c(Oc4cnc5[nH]ccc5c4)c3)CC2)=C(c2ccc(Cl)cc2)C1 (stereo not drawn) [Example 354, 4-(4-{[2-(4-chlorophenyl)-4,4-dimethylcyclohex-1-en-1-yl]methyl}piperazin-1-yl)-N-({4-[(4-cyclopropylmorpholin-2-yl)methoxy]-3-nitrophenyl}sulfonyl)-2-(1H-pyrrolo[2,3-b]pyridin-5-yloxy)benzamide]		53.2 nM
CC1(C)CCCC(CN2CCN(c3ccc(C(=O)NS(=O)(=O)c4ccc(NCC5CCOCC5)c([N+](=O)[O-])c4)c(Oc4cnc5[nH]ccc5c4)c3)CC2)=C1c1ccc(Cl)cc1 [Example 150, 4-(4-{[2-(4-chlorophenyl)-3,3-dimethylcyclohex-1-en-1-yl]methyl}piperazin-1-yl)-N-({3-nitro-4-[(tetrahydro-2H-pyran-4-ylmethyl)amino]phenyl}sulfonyl)-2-(1H-pyrrolo[2,3-b]pyridin-5-yloxy)benzamide]		51 nM
CC1(C)CCC(CN2CCN(c3ccc(C(=O)NS(=O)(=O)c4ccc(NC[C@@H]5CCN(C6COC6)C5)c([N+](=O)[O-])c4)c(Oc4cnc5[nH]ccc5c4)c3)CC2)=C(c2ccc(Cl)cc2)C1 [Example 209, 4-(4-{[2-(4-chlorophenyl)-4,4-dimethylcyclohex-1-en-1-yl]methyl}piperazin-1-yl)-N-{[3-nitro-4-({[(3S)-1-oxetan-3-ylpyrrolidin-3-yl]methyl}amino)phenyl]sulfonyl}-2-(1H-pyrrolo[2,3-b]pyridin-5-yloxy)benzamide]		4.5 nM
CC1(C)CCC(CN2CCN(c3ccc(C(=O)NS(=O)(=O)c4cnc(OCC5(F)CCN(C6COC6)CC5)c(Cl)c4)c(Oc4cnc5[nH]ccc5c4)c3)CC2)=C(c2ccc(Cl)cc2)C1 [Example 277, N-[(5-chloro-6-{[4-fluoro-1-(oxetan-3-yl)piperidin-4-yl]methoxy}pyridin-3-yl)sulfonyl]-4-(4-{[2-(4-chlorophenyl)-4,4-dimethylcyclohex-1-en-1-yl]methyl}piperazin-1-yl)-2-(1H-pyrrolo[2,3-b]pyridin-5-yloxy)benzamide]		8.18 nM

Source: patent US20240043404A1 (AbbVie Inc., priority 2009, published 2024)
